Data on one compound can be found in patent US9204640B2, “2-acyloxy-pyrrolin-4-ones” (BAYER INTELLECTUAL PROPERTY GMBH, priority 2011, dated 2015).

What all share (format): in vivo
One assay deals with Tetranychus urticae. The experiment in a line: Tetranychus test (TETRUR spray treatment; OP-resistant in Example 10). As for the experimental part:
Tetranychus Test (TETRUR Spray Treatment)
To produce a suitable preparation of active compound, 1 part by weight of active compound is mixed with the stated amount of solvent and emulsifier, and the concentrate is diluted with emulsifier-containing water to the desired concentration. Discs of bean leaves (Phaseolus vulgaris) which are infested by all stages of the greenhouse red spider mite (Tetranychus urticae) are sprayed with an active compound preparation of the desired concentration.
After 5 days, the effect in % is determined. 100% means that all of the spider mites have been killed; 0% means that none of the spider mites have been killed.
Tetranychus Test, OP-Resistant (TETRUR Spray Treatment)
To produce a suitable preparation of active compound, 1 part by weight of active compound is mixed with the stated amount of solvent and emulsifier, and the concentrate is diluted with emulsifier-containing water to the desired concentration.
Discs of bean leaves (Phaseolus vulgaris) which are infested by all stages of the greenhouse red spider mite (Tetranychus urticae) are sprayed with an active compound preparation of the desired concentration.
After the desired period of time, the activity in % is determined. 100% means that all of the spider mites have been killed; 0% means that none of the spider mites have been killed.

The subject of the next assay is Bemisia tabaci. The experiment in a line: Bemisia tabaci spray test (BEMITA). The following applies: 20 g/ha; 7dat. Here is the method:
Bemisia Tabaci-Spray Test ([…]) To produce a suitable preparation of active compound, 1 part by weight of active compound is mixed with the stated amount of solvent and emulsifier, and the concentrate is diluted with emulsifier-containing water to the desired concentration. Discs of cotton leaves (Gossypium hirsutum) which are infested by all stages of the whitefly (Bemisia tabaci) are sprayed with an active compound preparation of the desired concentration. After the desired period of time, the activity in % is determined. 100% means that all the whiteflies have been killed; 0% means that none of the whiteflies have been killed.

A further assay relates to Lucilia cuprina larvae. The experiment in a line: Lucilia cuprina test (LUCICU). The note with it: 100 ppm, after 2 days. As for the experimental part:
Lucilia Cuprina Test (LUCICU) [table] To prepare an appropriate active compound formulation, 10 mg of active compound are mixed with 0.5 ml of dimethyl sulfoxide and the concentrate is diluted with water to the desired concentration. Vessels containing horse meat treated with the active compound preparation of the desired concentration are populated with about 20 Lucilia cuprina larvae. After 2 days, the kill in % is determined. 100% means that all of the larvae have been killed; 0% means that none of the larvae have been killed.

The next assay has as its system Phaedon cochleariae. The experiment in a line: Phaedon test (PHAECO spray treatment). The note with it: application rate 500 g/ha, after 7 days, Chinese cabbage leaf discs. As for the experimental part: Phaedon Test ([…] Spray Treatment) [table] To produce a suitable preparation of active compound, 1 part by weight of active compound is mixed with the stated amount of solvent and emulsifier, and the concentrate is diluted with emulsifier-containing water to the desired concentration. Discs of Chinese cabbage (Brassica pekinensis) are sprayed with an active compound preparation of the desired concentration and, after drying, populated with larvae of the mustard beetle (Phaedon cochleariae). After 7 days, the effect in % is determined 100% means that all beetle larvae have been killed; 0% means that none of the beetle larvae have been killed. Phaedon Test ([…] Spray Treatment) To produce a suitable preparation of active compound, 1 part by weight of active compound is mixed with the stated amount of solvent and emulsifier, and the concentrate is diluted with emulsifier-containing water to the desired concentration. Discs of Chinese cabbage (Brassica pekinensis) are sprayed with an active compound preparation of the desired concentration and, after drying, populated with larvae of the mustard beetle (Phaedon cochleariae). After the desired period of time, the activity in % is determined. 100% means that all beetle larvae have been killed; 0% means that none of the beetle larvae have been killed.

A further assay relates to Spodoptera frugiperda. The experiment in a line: Spodoptera frugiperda test (SPODFR spray treatment). As for the experimental part:
Spodoptera Frugiperda Test (SPODFR Spray Treatment) [table] To produce a suitable preparation of active compound, 1 part by weight of active compound is mixed with the stated amount of solvent and emulsifier, and the concentrate is diluted with emulsifier-containing water to the desired concentration. Discs of corn leaves (Zea mays) are sprayed with an active compound preparation of the desired concentration and, after drying, populated with caterpillars of the armyworm (Spodoptera frugiperda). After 7 days, the effect in % is determined. 100% means that all caterpillars have been killed; 0% means that none of the caterpillars have been killed. Spodoptera Frugiperda Test (SPODFR Spray Treatment) To produce a suitable preparation of active compound, 1 part by weight of active compound is mixed with the stated amount of solvent and emulsifier, and the concentrate is diluted with emulsifier-containing water to the desired concentration. Discs of corn leaves (Zea mays) are sprayed with an active compound preparation of the desired concentration and, after drying, populated with caterpillars of the armyworm (Spodoptera frugiperda). After the desired period of time, the activity in % is determined. 100% means that all caterpillars have been killed; 0% means that none of the caterpillars have been killed.

A further assay concerns Boophilus microplus. The experiment in a line: Boophilus microplus test (BOOPMI injection). The following applies: 20 μg/animal, after 7 days. Here is the method:
Boophilus Microplus Test (BOOPMI Injection) [table] To prepare an appropriate active compound formulation, 10 mg of active compound are mixed with 0.5 ml of solvent and the concentrate is diluted with solvent to the desired concentration. The solution of active compound is injected into the abdomen (Boophilus microplus), and the animals are transferred into dishes and kept in a climatized room. The activity is assessed by deposition of fertile eggs. After 7 days, the effect in % is determined. 100% means that none of the ticks has laid any fertile eggs.

The subject of the next assay is Liriomyza trifolii. The experiment in a line: Liriomyza trifolii spray test (LIRITR). The note with it: 20 g/ha; 7dat. Here is the method:
Liriomyza Trifolii-Spray Test ([…]) To produce a suitable preparation of active compound, 1 part by weight of active compound is mixed with the stated amount of solvent and emulsifier, and the concentrate is diluted with emulsifier-containing water to the desired concentration. If the addition of ammonium salts or/and penetrants is required, these are in each case added in a concentration of 1000 ppm to the solution of the preparations. Discs of bean leaves (Phaseolus vulgaris) which are infested by all stages of the leaf-mining fly (Liriomyza trifolii) are sprayed with an active compound preparation of the desired concentration. After the desired period of time, the activity in % is determined. 100% means that all of the leaf-mining flies have been killed; 0% means that none of the leaf-mining flies have been killed.

The subject of another assay is Myzus persicae. The experiment in a line: Myzus test (MYZUPE spray treatment). The following applies: application rate 500 g/ha, after 5 days, Chinese cabbage leaf discs. In a few lines:
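Chinese cabbage leaf discs carrying all stages of green peach aphid sprayed with compound diluted in emulsifier-containing water to the desired concentration. Mortality scored as % after 5 days, where 100% means all aphids dead and 0% none.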

Turning to `CCOC(=O)OC1=C(c2c(C)cc(C)cc2C)C(=O)C2(CCC(COC)CC2)N1` (stereo not shown) [I-b-3], in the assay on Tetranychus urticae (20 g/ha, 5dat, OP-resistant), the “% Activity TETRUR” value is 80%. Also, the “effect in % (spider mites killed)” value in the assay on Tetranychus urticae (application rate 100 g/ha, after 5 days, bean leaf discs) was 90%. In addition, the “% Activity BEMITA” value in the assay with Bemisia tabaci is listed as 72%. Moreover, the “kill in % (larvae)” value in the assay on Lucilia cuprina larvae came out at 90%. Besides, the “effect in % (beetle larvae killed)” value in the assay on Phaedon cochleariae was found to be 100%. Also, the “% Activity SPODFR” value in the assay on Spodoptera frugiperda (500 g/ha, 7dat) stood at 100%. For the same compound, in the assay on Spodoptera frugiperda (application rate 500 g/ha, after 7 days, corn leaf discs), the “effect in % (caterpillars killed)” value came to 100%. Also, in the assay on Boophilus microplus, the “efficacy in % (deposition of fertile eggs)” value is recorded as 100%. For the same compound, the “% Activity LIRITRI” value in the assay with Liriomyza trifolii was determined as 80%. In addition, the “effect in % (aphids killed)” value with Myzus persicae was 90%.
